Data taken from patent publication US7132417B2, “2-phenyl-1-[4-(2-aminoethoxy)-benzyl]-indoles as estrogenic agents” (Wyeth, priority 1996, dated 2006).
Where two headings read alike, the source gives them in different places.

What was measured:
[1] = target: T1, estrogen receptor (Homo sapiens, UniProt P03372); assay: In vitro estrogen receptor binding assay ([3H]-17β-estradiol competition); parameters: expressed in transfected cells; host or cells: CHO cells (100,000 g cytosol); settings: read-out: Receptor Binding IC50's
T1 sequence (P03372 1-595): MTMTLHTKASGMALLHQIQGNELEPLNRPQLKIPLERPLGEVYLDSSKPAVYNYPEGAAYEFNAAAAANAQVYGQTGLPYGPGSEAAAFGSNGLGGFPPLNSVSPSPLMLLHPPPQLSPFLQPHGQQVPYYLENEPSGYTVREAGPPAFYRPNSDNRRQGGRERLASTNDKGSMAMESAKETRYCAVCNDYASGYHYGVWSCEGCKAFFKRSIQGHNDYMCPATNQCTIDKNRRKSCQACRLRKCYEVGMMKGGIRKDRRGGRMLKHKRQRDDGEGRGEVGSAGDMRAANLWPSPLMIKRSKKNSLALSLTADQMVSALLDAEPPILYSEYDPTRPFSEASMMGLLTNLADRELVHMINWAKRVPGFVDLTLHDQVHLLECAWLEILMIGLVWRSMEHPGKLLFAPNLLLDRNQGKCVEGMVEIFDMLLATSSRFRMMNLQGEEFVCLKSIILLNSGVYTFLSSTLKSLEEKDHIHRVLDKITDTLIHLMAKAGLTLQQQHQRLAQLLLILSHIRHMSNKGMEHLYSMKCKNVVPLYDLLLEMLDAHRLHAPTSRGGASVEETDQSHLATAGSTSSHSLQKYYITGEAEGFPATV
Procedure: In Vitro Estrogen Receptor Binding Assay
CHO cells overexpressing the estrogen receptor were grown in 150 mm^2 dishes in DMEM+10% dextran coated charcoal, stripped fetal bovine serum. The plates were washed twice with PBS and once with 10 mM Tris-HCl, pH 7.4, 1 mM EDTA. Cells were harvested by scraping the surface and then the cell suspension was placed on ice. Cells were disrupted with a hand-held motorized tissue grinder using two, 10-second bursts. […] The cytosol was then frozen and stored at −80° C. Protein concentration of the cytosol was estimated using the BCA assay with reference standard protein.
100 uG/100 uL of the receptor preparation was aliquoted per well. […] The plate was incubated at room temperature for 2.5 h. […] 200 uL of the supernatant solution was then removed for scintillation counting. Samples were counted to 2% or 10 minutes, whichever occurs first. […] Also, wells containing radioactivity but no cytosol were processed with charcoal to estimate unremovable DPM of [^3H]
Counts per minute (CPM) of radioactivity were automatically converted to disintegrated per minute (DPM) by the Beckman LS 7500 Scintillation Counter using a set of quenched standards to generate a H No. for each sample.
For the generation of IC50 curves, % binding is plotted vs compound. […] For a description of these methods, see Hulme, E. C., ed. […] Receptor-Ligand Interactions: A Practical Approach. IRL Press, New York. (see especially chapter 8).

[2] = target: T1, estrogen receptor; assay: 2X VIT ERE infection (luciferase) assay; assay type: cell-based; parameters: expressed in transfected cells; host or cells: Chinese Hamster Ovary cells (CHO), stably transfected; settings: for Infection Luciferase Activity 1 uM + 17β estradiol: 1 uM compound + 1 nM 17β-estradiol (test for estrogen antagonism); for Infection Luciferase Activity 1 uM: 1 uM compound, percentage of activity as compared to 17β-estradiol
Procedure: Method No. 18 2X VIT ERE Infection Assay Cell Maintenance and Treatment
Chinese Hamster Ovary cells (CHO) which had been stably transfected with the human estrogen receptor were maintained in DMEM+10% fetal bovine serum (FBS). 48 h prior to treatment the growth medium was replaced with DMEM lacking phenol red +10% dextran coated charcoal stripped FBS (treatment medium). Cells were plated at a density of 5000 cells/well in 96-well plates containing 200 µL of medium/well.
Reporter DNA (Promega plasmid pGL2 containing two tandem copies of the vitellogenin ERE in front of the minimal thymidine kinase promoter driving the luciferase gene) was combined with the B-galactosidase expression plasmid pCH110 (Pharmacia) and carrier DNA (pTZ18U) in the following ratio:
20 uL of this mixture was added to each well of cells and remained on the cells for 16 h. […] Each treatment condition was performed on 8 wells (n=8) which were incubated for 24 h prior to the luciferase assay.
After removing the PBS, 25 uL of Promega lysis buffer was added to each well and allowed to stand at room temperature for 15 min, followed by 15 min at −80° C. and 15 min at 37° C. 20 uL of lysate was transferred to an opaque 96 well plate for luciferase activity evaluation and the remaining lysate (5 uL) was used for the B-galactosidase activity evaluation (normalize transfection). The luciferan substrate (Promega) was added in 100 uL aliquots to each well automatically by the luminometer and the light produced (relative light units) was read 10 seconds after addition.
To the remaining 5 uL of lysate 45 uL of PBS was added. Then 50 uL of Promega B-galactosidase 2× assay buffer was added, mixed well and incubated at 37° C. for 1 hour. A plate containing a standard curve (0.1 to 1.5 milliunits in triplicate) was set up for each experimental run. The plates were analyzed on a Molecular Devices spectrophotometric plate reader at 410 nm. The optical densities for the unknown were converted to milliunits of activity by mathematical extrapolation from the standard curve.
The luciferase data was generated as relative light units (RLUs) accumulated during a 10 second measurement and automatically transferred to a JMP (SAS Inc) file where background RLUs were subtracted. The B-galactosidase values were automatically imported into the file and these values were divided into the RLUs to normalize the data. The mean and standard deviations were determined from a n=8 for each treatment. […] These techniques are described by Tzukerman, M. T., Esty, A., Santiso-Mere, D., Danielian, P., Parker, M. G., Stein, R. B., Pike, J. W. and McDonnel, D. P. (1994).

SMILES	IC50 [1] [µM]	Infection Luciferase Activity 1 uM + 17β estradiol [2] [%]	Infection Luciferase Activity 1 uM [2] [%]	IC50 ([1]; cytosol of CHO cells overexpressing the estrogen receptor, [3H]17β-estradiol) [µM]
COc1cc(Cn2c(-c3ccc(O)cc3)c(C)c3cc(O)ccc32)ccc1OCCN1CCCCC1 [Example No. 167, 2-(4-Hydroxy-phenyl)-1-[3-methoxy-4-(2-piperidin-1-yl-ethoxy)-benzyl]-3-methyl-1H-indol-5-ol]	0.08	10	4	
Cc1c(-c2ccc(O)cc2)n(Cc2ccc(OCC[N+](C)(C)C)cc2)c2ccc(O)cc12.[I-] [compound 106, 2-(4-Hydroxy-phenyl)-3-methyl-1-[4-(2-dimethyl-1-yl-ethoxy)-benzyl]-1H-indol-5-ol methiodide]		81	10	0.1
Cc1c(-c2ccc(O)cc2)n(Cc2ccc(OCC[N+]3(C)CCCCC3)cc2)c2ccc(O)cc12 [compound 107, 2-(4-Hydroxy-phenyl)-3-methyl-1-[4-(2-piperidin-1-yl-ethoxy)-benzyl]-1H-indol-5-ol methiodide]	0.06	54	−1	
Cc1c(-c2ccc(OC(C)C)cc2)n(Cc2ccc(OCCN3CCCCC3)cc2)c2ccc(O)cc12 [compound 120, 2-(4-Isopropoxy-phenyl)-3-methyl-1-[4-(2-piperidin-1-yl-ethoxy)-benzyl]-1H-indol-5-ol]	0.1	1	−1	
Cc1c(-c2ccc(OC(C)C)cc2)n(Cc2ccc(OCCN3CCCCCC3)cc2)c2ccc(O)cc12 [compound 121, 1-[4-(2-Azepan-1-yl-ethoxy)-benzyl]-2-(4-isopropoxy-phenyl)-3-methyl-1H-indol-5-ol]	0.08	1	0	
Cc1ccc(-c2c(C)c3cc(O)ccc3n2Cc2ccc(OCCN3CCCCC3)cc2)cc1 [compound 124, 3-Methyl-1-[4-(2-piperidin-1-yl-ethoxy)-benzyl]-2-p-tolyl-1H-indol-5-ol]	0.11	−2	−2	
Cc1c(-c2ccc(Cl)cc2)n(Cc2ccc(OCCN3CCCCC3)cc2)c2ccc(O)cc12 [compound 125, 2-(4-Chloro-phenyl)-3-methyl-1-[4-(2-piperidin-1-yl-ethoxy)-benzyl]-1H-indol-5-ol]	0.11	−2	−3	
Cc1c(-c2ccc(OC(F)(F)F)cc2)n(Cc2ccc(OCCN3CCCCC3)cc2)c2ccc(O)cc12 [compound 132, 3-Methyl-1-[4-(2-piperidin-1-yl-ethoxy)-benzyl]-2-(4-trifluoromethoxy-phenyl)-1H-indole-5-ol]	0.05	−2	−5	
Oc1ccc(-c2c(Cl)c3cc(O)ccc3n2Cc2ccc(OCCN3CCCC3)cc2)cc1 [compound 133, 3-Chloro-2-(4-hydroxy-phenyl)-1-[4-(2-pyrrolidin-1-yl-ethoxy)-benzyl]-1H-indol-5-ol]	0.004			
CCc1c(-c2ccc(O)cc2)n(Cc2ccc(OCCN3CCCCC3)cc2)c2ccc(O)cc12 [compound 137, 2-(4-Hydroxy-phenyl)-3-ethyl-1-[4-(2-piperidin-1-yl-ethoxy)-benzyl]-1H-indol-5-ol]	0.15			
N#Cc1c(-c2ccc(O)cc2)n(Cc2ccc(OCCN3CCCCC3)cc2)c2ccc(O)cc12 [compound 138, 5-Hydroxy-2-(4-Hydroxy-phenyl)-1-[4-(2-piperidin-1-yl-ethoxy)-benzyl]-1H-indole-3-carbonitrile]	0.011			
